According to patent US11584725B2, “Pyrazinoic acid conjugates and hybrid conjugates” (Augusta University Research Institute, Inc., priority 2018, dated 2023):
In brackets after ≈: the same amount, converted by molar mass. Several values for one entry are separate records, joined by “and”; a condition that tells them apart may be missing. Equal entries are not always repeated. Where two headings read alike, the source gives them in different places.

Legend:
Format in all cases: cell-based
Mycobacterium marinum = assay: Anti-mycobacterial MIC; conditions: read-out: Minimum inhibitory concentration (MIC), observed
Mycobacterium fortuitum = assay: Anti-mycobacterial MIC; conditions: for MIC: Mycolicibacterium fortuitum
Mycobacterium bovis = assay: microbe, parasite or virus in culture; conditions: for MIC: Mycobacterium tuberculosis variant bovis, read-out: Minimum inhibitory concentration (MIC); for MIC lower than that of the standard reference (INH): Mycobacterium bovis, MIC vs INH
Klebsiella pneumonia = assay: Antibacterial MIC, aerobic bacteria, standard technique; conditions: Klebsiella pneumoniae, read-out: Minimum inhibitory concentration (MIC)
Description: (§1) Antibacterial properties were investigated for the synthesized compounds against a variety of Gram-positive (Staphylococcus aureus, Enterococcus faecalis) and Gram-negative (Klebsiella pneumonia, Proteus vulgaris, Pseudomonas aeruginosa) bacteria utilizing the standard technique.

Enterococcus faecalis = assay: as above; conditions: read-out: Minimum inhibitory concentration (MIC)
Description: as §1

Proteus vulgaris = assay: as above; conditions: read-out: Minimum inhibitory concentration (MIC)
Description: as §1

Staphylococcus aureus = assay: as above; conditions: read-out: Minimum inhibitory concentration (MIC)
Description: as §1

[1] = read-out: Minimum inhibitory concentration (MIC), observed
[2] = read-out: Minimum inhibitory concentration (MIC)

Compound	MIC (Mycobacterium marinum) [mM]	MIC (Mycobacterium fortuitum; [2]) [mg/mL]	other results
CSCC[C@H](NC(=O)c1cnccn1)C(=O)NNC(=O)c1ccncc1 [PZA-Met-INH]	26.7 (≈ 10 mg/mL)	–	MIC (Mycobacterium fortuitum; [1]): 53.4 mM
CC(C)C[C@H](NC(=O)c1cnccn1)C(=O)O [PZA-Leu-OH]	84.3 (≈ 20 mg/mL)	–	MIC (Mycobacterium fortuitum; [1]): 84.3 mM
CC(C)[C@H](NC(=O)c1cnccn1)C(=O)NNC(=O)c1ccncc1 [drawing 54]	–	20	–
O=C(NNC(=O)c1cnccn1)c1ccncc1 [drawing 60]	–	10	–
CCC(C)C(NC(=O)c1cnccn1)C(=O)O (stereo not shown) [drawing 48]	–	> 20	MIC (Mycobacterium bovis): > 20 mg/mL
CCC(C)C(NC(=O)c1cnccn1)C(=O)NNC(=O)c1ccncc1 (stereo not shown) [drawing 37]	–	–	MIC (Klebsiella pneumonia): 0.008 mg/mL (≈ 22.4 µM); MIC (Enterococcus faecalis): 0.03 µg/mL and 0.08 µM; MIC (Proteus vulgaris): 0.06 mg/L (≈ 0.168 µM)
NC(=O)c1cnccn1 [PZA, Pyrazinamide, reference compound]	81.2 (≈ 10 mg/mL)	–	MIC (Mycobacterium fortuitum; [1]): 81.2 mM
CCC(C)C(NC(=O)c1cnccn1)C(=O)O (stereo not shown) [drawing 30]	–	–	MIC (Klebsiella pneumonia): 0.008 mg/mL (≈ 33.7 µM); MIC (Enterococcus faecalis): 0.03 mg/L; MIC (Proteus vulgaris): 0.06 mg/L (≈ 0.253 µM)
O=C(N[C@@H](Cc1c[nH]c2ccccc12)C(=O)O)c1cnccn1	–	> 20	–
CC(C)C[C@H](NC(=O)c1cnccn1)C(=O)NNC(=O)c1ccncc1 [drawing 53]	–	20	–
O=C(NNC(=O)[C@H](Cc1c[nH]c2ccccc12)NC(=O)c1cnccn1)c1ccncc1 [drawing 59]	–	20	–
O=C(NNC(=O)[C@H](Cc1ccccc1)NC(=O)c1cnccn1)c1ccncc1 [drawing 57]	–	20	–
CCC(C)C(NC(=O)c1cnccn1)C(=O)NNC(=O)c1ccncc1 (stereo not shown) [PZA-Ile-INH]	56.1 (≈ 20 mg/mL)	–	MIC (Mycobacterium fortuitum; [1]): 56.1 mM
O=C(NNC(=O)c1ccncc1)c1ccncc1 [drawing 61]	–	20	–
CCC(C)C(NC(=O)c1cnccn1)C(=O)NNC(=O)c1ccncc1 (stereo not shown) [drawing 55]	–	20	MIC (Mycobacterium bovis): > 20 mg/mL
NC(=O)c1cnccn1 [drawing 44]	–	10	–
O=C(NC(Cc1ccccc1)C(=O)O)c1cnccn1 (stereo not shown)	–	> 20	–

Compound	MIC (Mycobacterium marinum) [mM]	MIC (Mycobacterium fortuitum; [2]) [mg/mL]	other results
O=C(NNC(=O)[C@H](Cc1c[nH]c2ccccc12)NC(=O)c1cnccn1)c1ccncc1 [drawing 41]	–	–	MIC (Staphylococcus aureus): 3.73 mM (≈ 1.6 mg/mL)
O=C(NNC(=O)C(Cc1ccccc1)NC(=O)c1cnccn1)c1ccncc1 (stereo not shown)	–	10	–
CC(C)[C@H](NC(=O)c1cnccn1)C(=O)NNC(=O)c1ccncc1 [drawing 36]	–	–	MIC (Enterococcus faecalis): 0.00035 mM
O=C(NNC(=O)[C@H](Cc1c[nH]c2ccccc12)NC(=O)c1cnccn1)c1ccncc1 [PZA-Trp-INH]	46.6 (≈ 20 mg/mL)	–	MIC (Mycobacterium fortuitum; [1]): 46.6 mM
O=C(NNC(=O)c1cnccn1)c1ccncc1 [PZA-INH]	41.1 (≈ 10 mg/mL)	–	MIC (Mycobacterium fortuitum; [1]): 41.1 mM; MIC lower than that of the standard reference (INH) (Mycobacterium bovis): about 1.8 folds
O=C(N[C@@H](Cc1ccccc1)C(=O)O)c1cnccn1	–	> 20	–
O=C(NNC(=O)c1ccncc1)c1ccncc1 [Iso-INH]	82.6 (≈ 20 mg/mL)	–	MIC (Mycobacterium fortuitum; [1]): 82.6 mM; MIC lower than that of the standard reference (INH) (Mycobacterium bovis): about 1.8 folds
NNC(=O)c1ccncc1 [INH, isoniazide, reference compound]	72.9 (≈ 10 mg/mL)	–	–
NNC(=O)c1ccncc1 [drawing 45]	–	20	–
CC(C)C[C@H](NC(=O)c1cnccn1)C(=O)NNC(=O)c1ccncc1 [PZA-Leu-INH]	56.1 (≈ 20 mg/mL)	–	MIC (Mycobacterium fortuitum; [1]): 56.1 mM
CSCC[C@H](NC(=O)c1cnccn1)C(=O)NNC(=O)c1ccncc1 [drawing 56]	–	20	–
CC(C)[C@H](NC(=O)c1cnccn1)C(=O)NNC(=O)c1ccncc1 [PZA-Val-INH]	58.4 (≈ 20 mg/mL)	–	MIC (Mycobacterium fortuitum; [1]): 58.4 mM
O=C(NNC(=O)[C@H](Cc1ccccc1)NC(=O)c1cnccn1)c1ccncc1 [PZA-Phe-INH]	51.2 (≈ 20 mg/mL)	–	MIC (Mycobacterium fortuitum; [1]): 51.2 mM
CC(C)C[C@H](NC(=O)c1cnccn1)C(=O)O [drawing 46]	–	20	–
O=C(NNC(=O)C(Cc1ccccc1)NC(=O)c1cnccn1)c1ccncc1 (racemic) [PZA-DL-Phe-INH]	–	–	Potency relative to the standard reference (INH) (Mycobacterium fortuitum; MIC vs INH): about 5.6 folds
CSCC[C@H](NC(=O)c1cnccn1)C(=O)O	–	> 20	–
CC(C)[C@H](NC(=O)c1cnccn1)C(=O)O	–	> 20	–
